US20100179109A1, “RENIN INHIBITORS” (priority 2007, published 2010)

Molecular target: T1, trypsin-activated recombinant human renin (Homo sapiens, UniProt P00797)
T1 sequence (P00797 67-406): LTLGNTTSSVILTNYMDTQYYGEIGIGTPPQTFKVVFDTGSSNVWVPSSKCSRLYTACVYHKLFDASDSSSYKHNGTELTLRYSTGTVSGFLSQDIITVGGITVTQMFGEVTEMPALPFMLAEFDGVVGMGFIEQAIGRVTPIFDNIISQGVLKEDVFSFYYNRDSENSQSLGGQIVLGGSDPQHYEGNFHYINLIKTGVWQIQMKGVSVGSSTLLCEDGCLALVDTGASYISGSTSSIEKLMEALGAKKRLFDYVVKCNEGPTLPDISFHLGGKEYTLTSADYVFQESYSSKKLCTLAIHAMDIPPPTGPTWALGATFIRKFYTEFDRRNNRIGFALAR
Assay: In vitro renin assay, fluorescently labeled peptide, LJL Acquest, results as pIC50 (Example 22)
Assay type: biochemical
Conditions: found not to demonstrate inhibition at concentrations below the stated value
Procedure: The potency of renin inhibitors was measured using an in vitro renin assay. In this assay, renin-catalyzed proteolysis of a fluorescently labeled peptide converts the peptide from a weakly fluorescent to a strongly fluorescent molecule. The following test protocol was used. Substrate solution (5 μl; 2 μM Arg-Glu-Lys(5-Fam)-Ile-His-Pro-Phe-His-Leu-Val-Ile-His-Thr-Lys(5,6 Tamra)-Arg-CONH2 in 50 mM Hepes, 125 mM NaCl, 0.1% CHAPS, pH 7.4) then trypsin-activated recombinant human renin (Scott, Martin J. et. al. Protein Expression and Purification 2007, 52(1), 104-116; 5 μL; 600 pM renin in 50 mM Hepes, 125 mM NaCl, 0.1% CHAPS, pH 7.4) were added sequentially to a black Greiner low volume 384-well plate (cat.#784076) pre-stamped with a 100 nl DMSO solution of compound at the desired concentration. The assay plates were incubated at room temperature for 2 hours with a cover plate then quenched by the addition of a stop solution (2 μL; 5 μM of Bachem C-3195 in 50 mM Hepes, 125 mM NaCl, 0.1% CHAPS, pH 7.4, 10% DMSO). The assay plates were read on an LJL Acquest using a 485 nm excitation filter, a 530 nm emission filter, and a 505 nm dichroic filter. Compounds were initially prepared in neat DMSO at a concentration of 10 mM. For inhibition curves, compounds were diluted using a three fold serial dilution and tested at 11 concentrations (e.g. 50 μM-0.8 nM or 25 μM-0.42 nM or 2.5 μM to […]). Curves were analyzed using ActivityBase and XLfit, and results were expressed as pIC50 values.

IC50 [µM] | Structure (SMILES)
≥ 50 | CNCc1ccc(C(=O)N2CCOC(C(O)(CCCCOC)c3cccc(Cl)c3-c3nc(C(C)C)c4ccccc4n3)C2)cc1 (centres unmarked) [1-{3-chloro-2-[4-(1-methylethyl)-2-quinazolinyl]phenyl}-1-[4-({4-[(methylamino)methyl]phenyl}carbonyl)-2-morpholinyl]-5-(methyloxy)-1-pentanol]
≥ 50 | CNCc1ccc(C(=O)N2CCCC(C(O)(CCCCOC)c3cccc(Cl)c3Cc3cccc(C)c3)C2)cc1 (centres unmarked) [1-{3-chloro-2-[(3-methylphenyl)methyl]phenyl}-1-[1-({4-[(methylamino)methyl]phenyl}carbonyl)-3-piperidinyl]-5-(methyloxy)-1-pentanol]
≥ 50 | CCc1cccc(-c2c(Cl)cccc2C(OCCNC(=O)OC)C2CN(C(=O)c3ccc(CNC)cc3)CCO2)c1 (centres unmarked) [methyl [2-({(6-chloro-3′-ethyl-2-biphenylyl)[4-({4-[(methylamino)methyl]phenyl}carbonyl)-2-morpholinyl]methyl}oxy)ethyl]carbamate]

The next lines start with the compound.

Structure (SMILES) | IC50 [µM]
CNCc1ccc(C(=O)N2CCOC(C(O)(CCCNC(=O)OC)c3cccc(F)c3-c3cc(C)cc(OC)c3)C2)cc1 (centres unmarked) | ≥ 50
COCCCCC(O)(c1ccccc1Oc1c(C)cccc1C)C1CCCN(C(=O)c2ccc(CN)cc2)C1 (centres unmarked) [1-(1-{[4-(aminomethyl)phenyl]carbonyl}-3-piperidinyl)-1-{2-[(2,6-dimethylphenyl)oxy]phenyl}-5-(methyloxy)-1-pentanol] | ≥ 50
COCCCCC(O)(c1cccc(Cl)c1Cc1ccccc1C)C1CCCN(C(=O)c2ccc(CN)cc2)C1 (centres unmarked) [1-(1-{[4-(aminomethyl)phenyl]carbonyl}-3-piperidinyl)-1-{3-chloro-2-[(2-methylphenyl)methyl]phenyl}-5-(methyloxy)-1-pentanol] | ≥ 50
COC(=O)NCCCC(O)(c1cccc(F)c1-c1cc(C)cc(OC)c1)C1CN(C(=O)C2CCC(N)C2)CCO1 (centres unmarked) [methyl {4-(4-{[3-aminocyclopentyl]carbonyl}-2-morpholinyl)-4-[6-fluoro-3′-methyl-5′-(methyloxy)-2-biphenylyl]-4-hydroxybutyl}carbamate] | ≥ 50
CNCc1ccc(C(=O)N2CCCC(C(O)(CCCNC(=O)OC)c3cccc(F)c3-c3cccs3)C2)cc1 (centres unmarked) [methyl {4-[3-fluoro-2-(2-thienyl)phenyl]-4-hydroxy-4-[1-({4-[(methylamino)methyl]phenyl}carbonyl)-3-piperidinyl]butyl}carbamate] | ≥ 50
